# Data reported in patent US11692028B2, “Map kinase pathway targets for the treatment of Marfan syndrome” (The Johns Hopkins University, priority 2017, dated 2023).
# Assays:
# [1] = test system: 129 MFS mice (Fbn1C1039G/+ on 129S6/SvEvTac background); test: Aortic root growth by echocardiography in drug-treated 129 MFS mice; type: in vivo, mouse; conditions: for aortic root growth: FIG. 2B
# Method: Losartan was dissolved in drinking water and filtered to reach a concentration of 0.6 g/L, giving an estimated daily dose of 60 mg/kg/day, as described previously (Habashi, J. P. et al. Science 312, 117-21 (2006)). Mice were started on losartan at 2 months of age and continued for 8 months. Placebo-treated animals received regular drinking water. RDEA119 was reconstituted in 10% 2-hydroxypropyl-beta-cyclodextrin (Sigma-Aldrich, Mo., USA) dissolved in PBS, and administered twice daily by oral gavage at a dose of 25 mg/kg, as described previously (Holm, T. M. et al. Science 15, 358-61 (2011)). Treatment was initiated at 2 months of age and continued for 2 months. 10% 2-hydroxypropyl-beta-cyclodextrin dissolved in PBS was administered as a control. Erlotinib was reconstituted in 1% methylcellulose (Sigma-Aldrich) dissolved in PBS, and administered daily by oral gavage at a dose of 50 mg/kg. Treatment was initiated at 2 months of age and continued for 2 months. 1% methylcellulose dissolved in PBS was administered as a control.
# Mouse echocardiography: Nair hair removal cream was used on all mice the day prior to echocardiography. All echocardiograms were performed on awake, unsedated mice using the VisualSonics Vevo 2100 imaging system and a 30 MHz transducer (Fujifilm VisualSonics, ON, Canada). The aorta was imaged using a parasternal, long-axis view. Three separate measurements of the maximal internal dimension at the sinus of Valsalva and proximal ascending aorta were made from distinct captured images and averaged. All imaging and measurements were performed blinded to genotype and treatment arm.
# [2] = test system: pSmad2, pErk1/2, pp38, pEgfr; test: Western blot analysis of the aortic root of treated 129 MFS mice; type: in vivo, mouse; conditions: for signaling cascade activation in aortic root (Western blot): treated 129 MFS mice at 4 months of age, FIG. 2E, 3G
# Method: Losartan was dissolved in drinking water and filtered to reach a concentration of 0.6 g/L, giving an estimated daily dose of 60 mg/kg/day, as described previously (Habashi, J. P. et al. Science 312, 117-21 (2006)). Mice were started on losartan at 2 months of age and continued for 8 months. Placebo-treated animals received regular drinking water. RDEA119 was reconstituted in 10% 2-hydroxypropyl-beta-cyclodextrin (Sigma-Aldrich, Mo., USA) dissolved in PBS, and administered twice daily by oral gavage at a dose of 25 mg/kg, as described previously (Holm, T. M. et al. Science 15, 358-61 (2011)). Treatment was initiated at 2 months of age and continued for 2 months. 10% 2-hydroxypropyl-beta-cyclodextrin dissolved in PBS was administered as a control. Erlotinib was reconstituted in 1% methylcellulose (Sigma-Aldrich) dissolved in PBS, and administered daily by oral gavage at a dose of 50 mg/kg. Treatment was initiated at 2 months of age and continued for 2 months. 1% methylcellulose dissolved in PBS was administered as a control. Mice that were sacrificed for Western Blot analysis had their proximal ascending aortas immediately dissected, flash frozen in liquid nitrogen and stored at -80° C. until further processing. Protein was extracted using the reagents and protocol from a Total Protein Extraction Kit containing protease inhibitor and Protein Phosphatase Inhibitor Cocktail (Millipore, Mass., USA). Aortas were homogenized using a pellet pestle motor (Kimble-Kontes, N.J., USA) as per the extraction kit protocol. Samples were then stored once more at -80° C. until Western blot analysis was performed. […] PBS-T). Equal protein loading of samples was determined by a protein assay (Bio-Rad, Calif., USA) and confirmed by probing with an antibody against β-Actin (Sigma-Aldrich #A5316). […] Blots were then washed in PBS-T, developed using SuperSignal West Femto HRP substrate (Pierce Scientific, Ill., USA), exposed to BioMax Scientific Imaging Film (Sigma), and quantified using ImageJ analysis software (NIH, Md., USA).
# [3] = test system: Fbn1C1039G/+ mice (MFS mice); conditions: cited from earlier work; for aortic disease in MFS mice: literature (Habashi 2006; Holm 2011; Habashi 2011; Doyle 2015)
# [4] = test system: TGFβ signal transduction (p-SMAD2); conditions: measured by p-SMAD2 western blot analysis; cited from earlier work
# [5] = test system: TGFβ induction in vascular tissues; conditions: literature; cited from earlier work
# [6] = test system: patients with MFS; conditions: literature (Lacro et al., NEJM 371, 2061); cited from earlier work
# [7] = test system: 129 MFS mice (Fbn1C1039G/+ on 129S6/SvEvTac background); test: Survival / premature lethality from aortic dissection in 129 MFS mice; type: in vivo, mouse; conditions: losartan, up to 8 months of treatment, FIG. 2C
# Excerpt: Mice were cared for under compliance with the Animal Care and Use Committee of the Johns Hopkins University School of Medicine. Fbn1^C1039G/+ mice on a pure C57BL/6J background were already onsite. Mice on a pure 129S6/SvEvTac background were obtained from Taconic Biosciences (Rensselaer County, N.Y., USA). The Fbn1^C1039G/+ mice on a pure C57BL/6J background were bred into a pure 129S6/SvEvTac background and backcrossed for >10 generations. Mice haploinsufficient or knockout for Mmp17 (B6.129P2-Mmp17^rm1Dg^en/J; #005824), Map2k6 (B6.129S1-Map2k6^tm1Flv/J; #008382) and Map3k4 (B6.129S6-Map3k4^tm1Flv/J; #008375) were obtained from the Jackson Laboratory (Bar Harbor, Me., USA), and bred to Fbn1C1039G/+ mice. Animals were checked daily for death and all mice found dead were immediately autopsied to assess for evidence of aortic dissection. Mice that were sacrificed were done so using a lethal dose of ketamine and acepromazine (1 ml of 10 mg/ml acepromazine in 10 mls of 100 mg/ml ketamine; MWI Vet, ID, USA). At the time of sacrifice, mice underwent immediate laparotomy and descending abdominal aortic transection. Phosphate buffered saline (PBS) was infused through the right and left ventricles to flush out the blood. […]
# [8] = oral gavage from 2 to 4 months of age (RDEA119 25 mg/kg twice daily; erlotinib 50 mg/kg daily), 3F
SMILES,"all aortic parameters (aortic root size, post-natal aortic root growth, premature lethality from dissection) [1]","aortic root growth [1, 8]",signaling cascade activation in aortic root (Western blot) [2],aortic disease in MFS mice [3],also measured
COc1cc(F)c(F)c(Nc2ccc(I)cc2F)c1NS(=O)(=O)C1(C[C@H](O)CO)CC1 [RDEA119],fully rescued,reduced aortic root growth to a rate equal to that of WT animals,"selective reduction in noncanonical (Erk1/2, p38) cascades",can suppress aortic disease in MFS mice,
Fc1ccc(Cl)cc1-c1nc(Nc2ccncc2)c2nccnc2n1 [SD-208],,,,,TGFβ signal transduction [4]: inhibits TGFβ signal transduction in a dose-dependent fashion
C#Cc1cccc(Nc2ncnc3cc(OCCOC)c(OCCOC)cc23)c1 [erlotinib],,abrogated aortic root growth,"reduced activation of Egfr, Erk1/2, and p38",,Ang-II infusion-mediated TGFβ induction in vascular tissues [5]: can abrogate Ang-II infusion-mediated TGFβ induction in vascular tissues
CCCCc1nc(Cl)c(CO)n1Cc1ccc(-c2ccccc2-c2nn[nH]n2)cc1 [losartan],fully rescued,,,can suppress aortic disease in MFS mice,"aortic root growth in patients with MFS [6]: some degree of rescue of aortic root growth; aortic root growth ([1]; losartan 0.6 g/L in drinking water (est. 60 mg/kg/day), growth from 2 to 6 months): reduced aortic root growth to a rate equal to that of WT animals; TGFβ signaling cascades in aortic root (Western blot) ([2]; losartan-treated 129 MFS mice at 10 months of age, FIG. 2D): reduction in both canonical (Smad2) and noncanonical (Erk1/2, p38) TGFβ signaling cascades; multiple phenotypic manifestations (aortic aneurysm, developmental emphysema, mitral valve disease, skeletal muscle myopathy) ([3]; Fbn1C1039G/+ mice, in association with blunted Smad2/3 activation, literature): can be attenuated; premature lethality (survival) [7]: ameliorated premature lethality"
